In patent publication US10131652B2, “Pyrimidinyloxy benzene derivatives as herbicides” (E. I. DU PONT DE NEMOURS AND COMPANY, priority 2014, dated 2018):

Legend:
Assay type in all cases: in vivo
soybean (Glycine max) = assay: Test D pre-/postemergence plant response
Summary of the method: (§1)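 Pre-/post-emergence greenhouse test. Pre: seeded loam+sand, sprayed same day. Post: 1–4 leaf plants (2–18 cm), peat/vermiculite mix. Formulation: non-phytotoxic solvent + surfactant. Scored visually d13–15, 0–100 vs control.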

[1] = tested on: johnsongrass (Sorghum halepense); assay: Test D pre-/postemergence plant response
Summary of the method: as §1

[2] = tested on: winter wheat (Triticum aestivum); assay: Test D pre-/postemergence plant response
Summary of the method: as §1

[3] = tested on: velvetleaf (Abutilon theophrasti); assay: Test D pre-/postemergence plant response
Summary of the method: as §1

[4] = tested on: morningglory (Ipomoea coccinea); assay: Test D pre-/postemergence plant response
Summary of the method: as §1

[5] = tested on: waterhemp (common waterhemp, Amaranthus rudis); assay: Test D pre-/postemergence plant response
Summary of the method: as §1

[6] = tested on: lambsquarters (Chenopodium album); assay: Test D pre-/postemergence plant response
Summary of the method: as §1

[7] = tested on: giant foxtail (Setaria faberii); assay: Test B pre-/postemergence plant response
Summary of the method: (§2)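 Greenhouse pots, loam/sand soil; compound formulated with surfactant in non-phytotoxic solvent. Preemergence soil spray and postemergence spray at 1–2 leaf stage run simultaneously. Visual injury, 0–100, about 10 days post-treatment.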

[8] = tested on: wheat (Triticum aestivum); assay: Test B pre-/postemergence plant response
Summary of the method: as §2

corn (Zea mays) = assay: Test B pre-/postemergence plant response
Summary of the method: as §2

[9] = tested on: pigweed (Amaranthus retroflexus); assay: Test B pre-/postemergence plant response
Summary of the method: as §2

[10] = tested on: barnyardgrass (Echinochloa crus-galli); assay: Test B pre-/postemergence plant response
Summary of the method: as §2

[11] = tested on: ducksalad (Heteranthera limosa); assay: Test C flooded paddy test plant response; details: Flood, 250 g ai/ha; scale of 0 to 100 where 0 is no effect and 100 is complete control; 13 to 15 days
Summary of the method: (§3)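 Scale 0 (no effect) to 100 (complete control), assigned visually versus controls after 13–15 d greenhouse. Application: directly to paddy water, 3 cm flood depth kept constant, 2-leaf stage.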

rice (Oryza sativa) = assay: Test C flooded paddy test plant response; details: Flood, 250 g ai/ha; scale of 0 to 100 where 0 is no effect and 100 is complete control; 13 to 15 days
Summary of the method: as §3

[12] = tested on: small-flower umbrella sedge (Cyperus difformis); assay: Test C flooded paddy test plant response; details: Flood, 250 g ai/ha; scale of 0 to 100 where 0 is no effect and 100 is complete control; 13 to 15 days
Summary of the method: as §3

[13] = tested on: barnyardgrass (Echinochloa crus-galli); assay: Test C flooded paddy test plant response; details: Flood, 250 g ai/ha; scale of 0 to 100 where 0 is no effect and 100 is complete control; 13 to 15 days
Summary of the method: as §3

[14] = Postemergence, 31 g ai/ha, scale 0 to 100 (0 no effect, 100 complete control)
[15] = Postemergence, 62 g ai/ha, scale 0 to 100, 0 no effect, 100 complete control
[16] = Postemergence, 125 g ai/ha, scale 0 to 100, 0 no effect, 100 complete control
[17] = Preemergence, 8 g ai/ha, scale 0 to 100 (0 no effect, 100 complete control)
[18] = Preemergence, 16 g ai/ha, scale 0 to 100 (0 no effect, 100 complete control)
[19] = Preemergence, 31 g ai/ha, scale 0 to 100 (0 no effect, 100 complete control)
[20] = Preemergence, 62 g ai/ha, scale 0 to 100 (0 no effect, 100 complete control)
[21] = 31 g ai/ha, Preemergence, 0 to 100 scale where 0 is no effect and 100 is complete control
[22] = 125 g ai/ha, postemergence, 0 to 100 scale, 0 no effect, 100 complete control
[23] = Postemergence, 31 g ai/ha, 0 to 100 scale (0 no effect, 100 complete control)
[24] = Preemergence, 125 g ai/ha, 0 to 100 scale (0 no effect, 100 complete control)

What does the source list for `FC(F)(Cl)c1cc(-c2ccccc2Oc2ncc(Cl)cn2)no1` [Compound 143]?
Soybean plant response rating (soybean (Glycine max); [14]): 30; Plant response rating, Soybean (soybean (Glycine max); [15]): 60; Plant response rating, Soybean (soybean (Glycine max); [16]): 60; Plant response rating, Soybean (soybean (Glycine max); [17]): 0; Plant response rating, Soybean (soybean (Glycine max); [18]): 5; Plant response rating, Soybean (soybean (Glycine max); [19]): 10; Plant response rating, Soybean (soybean (Glycine max); [20]): 25; Johnsongrass plant response rating [1, 14]: 5; Plant response rating, Johnsongrass [1, 15]: 30; Plant response rating, Johnsongrass [1, 16]: 30; Plant response rating, Johnsongrass [1, 17]: 35; Plant response rating, Johnsongrass [1, 18]: 15; Plant response rating, Johnsongrass [1, 19]: 60; Plant response rating, Johnsongrass [1, 20]: 80; Wheat plant response rating [2, 14]: 5; Plant response rating, Wheat [2, 15]: 5; Plant response rating, Wheat [2, 16]: 5; Plant response rating, Wheat [2, 17]: 0; Plant response rating, Wheat [2, 18]: 0; Plant response rating, Wheat [2, 19]: 0; Plant response rating, Wheat [2, 20]: 0; Velvetleaf plant response rating [3, 14]: 30; Plant response rating, Velvetleaf [3, 15]: 50; Plant response rating, Velvetleaf [3, 16]: 65; Plant response rating, Velvetleaf [3, 17]: 35; Plant response rating, Velvetleaf [3, 18]: 30; Plant response rating, Velvetleaf [3, 19]: 75; Plant response rating, Velvetleaf [3, 20]: 85; Plant response rating, Morningglory [4, 15]: 90; Plant response rating, Morningglory [4, 16]: 100; Plant response rating, Morningglory [4, 17]: 0; Plant response rating, Morningglory [4, 18]: 10; Plant response rating, Morningglory [4, 19]: 35; Plant response rating, Morningglory [4, 20]: 55; Waterhemp plant response rating [5, 14]: 100; Plant response rating, Waterhemp [5, 15]: 100; Plant response rating, Waterhemp [5, 16]: 100; Plant response rating, Waterhemp [5, 17]: 95; Plant response rating, Waterhemp [5, 18]: 100; Plant response rating, Waterhemp [5, 19]: 98; Plant response rating, Waterhemp [5, 20]: 100; Lambsquarters plant response rating [6, 14]: 80; Plant response rating, Lambsquarters [6, 15]: 98; Plant response rating, Lambsquarters [6, 16]: 100; Plant response rating, Lambsquarters [6, 17]: 25; Plant response rating, Lambsquarters [6, 18]: 70; Plant response rating, Lambsquarters [6, 19]: 85; Plant response rating, Lambsquarters [6, 20]: 85; Plant response rating, Foxtail, Giant [7, 21]: 70; Plant response rating, Foxtail, Giant [7, 22]: 80; Plant response rating, Foxtail, Giant [7, 23]: 10; Foxtail, Giant plant response rating [7, 24]: 100; Plant response rating, Wheat [8, 22]: 30; Plant response rating, Wheat [8, 23]: 20; Plant response rating, Corn (corn (Zea mays); [22]): 30; Plant response rating, Corn (corn (Zea mays); [23]): 40; Plant response rating, Pigweed [9, 21]: 90; Plant response rating, Pigweed [9, 22]: 100; Plant response rating, Pigweed [9, 23]: 90; Pigweed plant response rating [9, 24]: 100; Plant response rating, Barnyardgrass [10, 21]: 20; Plant response rating, Barnyardgrass [10, 22]: 90; Plant response rating, Barnyardgrass [10, 23]: 10; Barnyardgrass plant response rating [10, 24]: 90; Ducksalad plant response rating [11]: 85; Rice plant response rating (rice (Oryza sativa)): 35; Sedge, Umbrella plant response rating [12]: 100; Barnyardgrass plant response rating [13]: 30
